Assays:
[1] = tested on: XBP1(u)-luciferase splicing reporter in HepG2 hepatoma cells; experiment: HepG2 XBP1 reporter assay (XBP1(u)-Luc); type: cell-based; details: Homo sapiens, 6 hours after compound addition; for IC50: Table 4; for EC50: Table 3, read-out: XBP1-luc HepG2 1 EC50
[2] = tested on: DU4475 (breast cancer cells); experiment: Cell viability (ATPLite) in DU4475; type: cell-based; details: Homo sapiens, DU-4475, 96 hours
Experimental: (§1) Cells were removed from liquid nitrogen storage, thawed and expanded in appropriate growth media. Once expanded, cells were seeded in 384-well tissue culture treated plates at 500 cells per well. After 24 hours, cells were treated for either 0 hours or treated for 96 hours with a testing compound (at the concentrations of 100 nM and 2 uM). At the end of either 0 hours or 96 hours, cell status was analyzed using ATPLite (Perkin Elmer) to assess the biological response of cells to the testing compound.

[3] = tested on: NCI-H929 (Multiple myeloma cells); experiment: Cell viability (ATPLite) in NCI-H929; type: cell-based; details: Homo sapiens, 96 hours
Experimental: as §1

[4] = tested on: β-catenin-TCF-mediated reporter transcription activity in Colo 205 cells; experiment: Colo 205 reporter assay (TCF/LEF promoter-driven firefly luciferase); type: cell-based; details: Homo sapiens; Colo 205 TCF/LEF luciferase reporter, 5 hours after compound addition, 384 well; read-out: Colo205 IC50
[5] = tested on: intracellular calcium flux in Colo-205 cells; experiment: Calcium flux assay (FLIPR Calcium 5 Assay Kit, FLIPR3); type: cell-based; details: Homo sapiens, 0.6 h, calcium flux measured over 36 minutes, read-out: Colo 205 Calcium Flux assay 384w Boston Ca assay FLIPR3 Colo EC50
Experimental: Compounds described herein induced ER stress by causing intracellular calcium flux. Calcium flux was measured in Colo-205 cells using the FLIPR® Calcium 5 Assay Kit according to manufacturer's protocol (Molecular Devices, Cat. #R8186) on a FLIPR3 system (Molecular Devices). Calcium flux is measured over 36 minutes. The Colo-205 calcium flux assay data are summarized in Table 3: A<0.6 μM; 0.6 μM≤B<2.0 μM; 2.0 μM≤C<10.0 μM; D≥10.0 μM.

Compound	IC50 [1]	IC50 [2]	IC50 [3]	melting point	EC50 [1]	IC50 [4]	EC50 [5]
Cc1cc(N2CCCOCC2c2cc(C)c(F)cc2Cl)nc(N)n1 (stereo not shown) [C-38]	2000 to 5000 nM	1000 to 10000 nM	1000 to 10000 nM				
Cc1cc(N2CCCOCC2c2cc(O)c(O)cc2Cl)nc(N)n1 (stereo not shown) [C-22]		≥ 25000 nM	≥ 25000 nM				
COc1cc(Cl)c(C2COCCCN2c2cc(C)nc(N)n2)cc1Cl (stereo not shown) [C-19]	600 to 2000 nM	< 1000 nM	1000 to 10000 nM				
Cc1cc(N2CCCOCC2c2cc3c(cc2Cl)N(C)CC3)nc(N)n1 (stereo not shown) [C-32]	< 600 nM	< 1000 nM	< 1000 nM				
CCNc1cc(Cl)c(C2COCCCN2c2cc(C)nc(N)n2)cc1C (stereo not shown) [C-21]	< 600 nM	< 1000 nM	< 1000 nM				
Cc1cc(N2CCCOCC2c2cc(F)c(O)cc2Cl)nc(N)n1 (stereo not shown) [C-30]	600 to 2000 nM	1000 to 10000 nM	1000 to 10000 nM				
CCOc1cc(Cl)c(C2COCCCN2c2cc(C)nc(N)n2)cc1OC (stereo not shown) [C-23]	< 600 nM	< 1000 nM	< 1000 nM				
Cc1cc(N2CCCOCC2c2cc(CS(C)(=O)=O)ccc2Cl)nc(N)n1 (stereo not shown) [C-12, 4-[3-(2-Chloro-5-methanesulfonylmethyl-phenyl)-[1,4]oxazepan-4-yl]-6-methyl-pyrimidin-2-ylamine]	600 to 2000 nM	< 1000 nM	1000 to 10000 nM				
Cc1cc(N2CCCOCC2c2cc(F)c(Cl)cc2Cl)nc(N)n1 (stereo not shown) [C-18]	2000 to 5000 nM	1000 to 10000 nM	1000 to 10000 nM				
Cc1cc(N2CCCOCC2c2cc3c(cc2Cl)n(C)c(=O)n3C)nc(N)n1 (stereo not shown) [C-20]	< 600 nM	< 1000 nM	< 1000 nM				
Cc1cc(N2CCCN(S(C)(=O)=O)CC2c2ccccc2Cl)nc(N)n1 (racemic) [I-28, (+/−)-4-(2-(2-chlorophenyl)-4-(methylsulfonyl)-1,4-diazepan-1-yl)-6-methylpyrimidin-2-amine]				278 to 280 °C			
Cc1cc(N2CCCOCC2c2cc(Cl)c(O)cc2Cl)nc(N)n1 (stereo not shown) [C-7]	600 to 2000 nM	1000 to 10000 nM	1000 to 10000 nM				
CCOc1cc(Cl)c(C2COCCCN2c2cc(C)nc(N)n2)cc1Cl (stereo not shown) [C-41]	< 600 nM	< 1000 nM	10000 to 25000 nM				
Cc1cc(N2CCCOCC2c2cc3c(cc2Cl)OCCCO3)nc(N)n1 (stereo not shown) [C-13]	< 600 nM	< 1000 nM	1000 to 10000 nM				
COc1cc(Cl)c(C2COCCCN2c2cc(C)nc(N)n2)cc1OC (stereo not shown) [C-15]	600 to 2000 nM	< 1000 nM	< 1000 nM				
Cc1cc(N2CCCOC[C@H]2c2ccc(C#N)cc2Cl)nc(N)n1 (single isomer, unassigned) [I-96]				220 °C			
Cc1cc(N2CCCOC[C@H]2c2ccc(S(C)(=O)=O)cc2Cl)nc(N)n1 [C-155]		≥ 25000 nM	≥ 25000 nM				
Cc1cc(N2CCCOCC2c2cc3c(cc2Cl)OCC(=O)N3)nc(N)n1 (stereo not shown) [C-5]	< 600 nM	< 1000 nM	< 1000 nM				
Cc1cc(N2CCCOCC2c2ccc(OC[C@@H](O)CO)cc2Cl)nc(N)n1 (stereo partly drawn) [C-42, (S)-3-{4-[4-(2-Amino-6-methyl-pyrimidin-4-yl)-[1,4]oxazepan-3-yl]-3-chloro-phenoxy}-propane-1,2-diol]	600 to 2000 nM	< 1000 nM	< 1000 nM				
CCOc1cc(Cl)c(C2COCCCN2c2cc(C)nc(N)n2)cc1OCC (stereo not shown) [C-40]	< 600 nM	< 1000 nM	1000 to 10000 nM				
COc1cc(C2CCCCCN2c2cc(C)nc(N)n2)c(OC)cn1 (racemic) [I-116, (+/−)-4-[2-(2,5-dimethoxy-4-pyridyl)azepan-1-yl]-6-methyl-pyrimidin-2-amine]				107 to 109 °C			
Cc1cc(N2CCCOCC2c2cc3c(cc2Cl)CCN3)nc(N)n1 (stereo not shown) [C-37]		< 1000 nM	< 1000 nM				

Compound	IC50 [1]	IC50 [2]	IC50 [3]	melting point	EC50 [1]	IC50 [4]	EC50 [5]
COc1cc(C2COCCCN2c2cc(C)nc(N)n2)c(Cl)cc1OC(C)C (stereo not shown) [C-24]	< 600 nM	< 1000 nM	1000 to 10000 nM				
Cc1cc(N2CCCOCC2c2cc(F)c(F)cc2Cl)nc(N)n1 (stereo not shown) [C-4]	600 to 2000 nM	1000 to 10000 nM	1000 to 10000 nM				
Cc1cc(N2CCCOC[C@@H]2c2cc(S(C)(=O)=O)ccc2Cl)nc(N)n1 (single isomer, unassigned) [I-103]				120 °C			
COc1cc(C2COCCCN2c2cc(C)nc(N)n2)c(Cl)cc1O (stereo not shown) [C-14]	600 to 2000 nM	< 1000 nM	1000 to 10000 nM				
Cc1cc(N2CCCOCC2c2ccc(CS(C)(=O)=O)cc2F)nc(N)n1 (stereo not shown) [C-11, 4-[3-(2-Fluoro-4-methanesulfonylmethyl-phenyl)-[1,4]oxazepan-4-yl]-6-methyl-pyrimidin-2-ylamine]	600 to 2000 nM	< 1000 nM	< 1000 nM				
Cc1cc(N2CCCOC[C@@H]2c2ccc(NC3COC3)cc2Cl)nc(N)n1 [C-152]	< 600 nM	< 1000 nM	< 1000 nM				
Cc1cc(N2CCCOCC2c2cc(F)c(C)cc2Cl)nc(N)n1 (stereo not shown) [C-2]	600 to 2000 nM	1000 to 10000 nM	1000 to 10000 nM				
Cc1cc(N2CCCOCC2c2cc(C(F)(F)F)c(N)cc2Cl)nc(N)n1 (stereo not shown) [C-31]	< 600 nM	< 1000 nM	1000 to 10000 nM				
Cc1cc(N2CCCOCC2c2cc3c(cc2Cl)OCCO3)nc(N)n1 (stereo not shown) [C-6]	600 to 2000 nM	< 1000 nM	1000 to 10000 nM				
COc1cc(Cl)c([C@H]2COCCCN2c2cc(C)nc(N)n2)cc1O [C-36]	< 600 nM	< 1000 nM	< 1000 nM				
Cc1cc(N2CCCOC[C@H]2c2ccccc2Cl)nc(N)n1 (single isomer, unassigned) [I-30]				156 to 160 °C			
Cc1cc(N2CCCOC[C@@H]2c2ccc(N3CCC(C)(O)CC3)cc2Cl)nc(N)n1 [C-151]	< 600 nM	< 1000 nM	< 1000 nM				
Cc1cc(N2CCCOCC2c2cc(Cl)c(C)cc2Cl)nc(N)n1 (stereo not shown) [C-3]	600 to 2000 nM	1000 to 10000 nM	1000 to 10000 nM				
Cc1cc(N2CCCOCC2c2cc3c(cc2Cl)NC(=O)CO3)nc(N)n1 (stereo not shown) [C-35]	< 600 nM	< 1000 nM	< 1000 nM				
COc1cc(Cl)c(C2COCCCN2c2cc(C)nc(N)n2)cc1OC(C)C (stereo not shown) [C-39]	600 to 2000 nM	< 1000 nM	1000 to 10000 nM				
Cc1cc(N2CCCOCC2c2cc3c(cc2Cl)NCC3)nc(N)n1 (stereo not shown) [C-1]	< 600 nM	< 1000 nM	< 1000 nM				
COc1ccc(C2CCCCCN2c2cc(C)nc(N)n2)c(OC)c1 (racemic) [I-51, (+/−)-4-[2-(2,4-dimethoxyphenyl)azepan-1-yl]-6-methyl-pyrimidin-2-amine]					< 600 nM	300 to 1000 nM	< 600 nM
Cc1cc(N2CCCOCC2c2cc(C)c(N)cc2Cl)nc(N)n1 (stereo not shown) [C-16]	< 600 nM	< 1000 nM	< 1000 nM				
Cc1cc(N2CCCOCC2c2ccc(NC(=O)C3CC3)cc2Cl)nc(N)n1 (stereo not shown) [I-305]					< 600 nM	300 to 1000 nM	< 600 nM
Cc1cc(N2CCCOCC2c2cc(Cl)c(Cl)cc2Cl)nc(N)n1 (stereo not shown) [C-34]	≥ 5000 nM	1000 to 10000 nM	1000 to 10000 nM				
COc1cc(F)ccc1C1CCCCCN1c1cc(C)nc(N)n1 (stereo not shown) [I-22, 4-(2-(4-fluoro-2-methoxyphenyl)azepan-1-yl)-6-methylpyrimidin-2-amine]					600 to 2000 nM	300 to 1000 nM	< 600 nM
Cc1cc(N2CCCOCC2c2cc(F)c(-c3cccnc3)cc2Cl)nc(N)n1 (stereo not shown) [C-33]		1000 to 10000 nM	1000 to 10000 nM				

Source: patent US11440907B1 (Merck Patent GmbH, priority 2018, dated 2022)
